In US11020416B2, “Cancer chemotherapy employing halogenated analogs of thymidine” (priority 2015, dated 2021):
pIC50, pKi: −log10 of the molar value. Read-outs that look alike come from different tables or passages of the source. Blank lines part the entries; values can stand above or below the compound they belong to.

Tests used:
HeLa cells = conditions: cell culture; Sumikawa 2005; cited from earlier work
[1] = cited from earlier work
PARP1 [2] = target: T1, PARP1 (Homo sapiens, UniProt P09874); assay: Michaelis-Menten kinetic analysis of PARP1 enzymatic activity in solution (FIG. 1); assay type: biochemical
Procedure: Cloned human PARP-1 (8 nanomolar) was incubated with 100 nanomolar dA/dT, 50 micrograms/milliliter histone Hi and varying concentrations (50, 150, 450 micromolar) of ^32P-NAD^+ in the absence and presence of inhibitor (50 micromolar) at physiological pH (7.3) as described (E. Kirsten, E. Kun, J. Mendeleyev, C. P. Ordahl, Methods in Molecular Biology 287 137 (2004) and Kun, 2004 op cit). Reactions were started by the addition of PARP-1 and incubated for 10 minutes at room temperature after which acid precipitable ^32P was determined.
Target sequence in this assay (P09874 whole entry): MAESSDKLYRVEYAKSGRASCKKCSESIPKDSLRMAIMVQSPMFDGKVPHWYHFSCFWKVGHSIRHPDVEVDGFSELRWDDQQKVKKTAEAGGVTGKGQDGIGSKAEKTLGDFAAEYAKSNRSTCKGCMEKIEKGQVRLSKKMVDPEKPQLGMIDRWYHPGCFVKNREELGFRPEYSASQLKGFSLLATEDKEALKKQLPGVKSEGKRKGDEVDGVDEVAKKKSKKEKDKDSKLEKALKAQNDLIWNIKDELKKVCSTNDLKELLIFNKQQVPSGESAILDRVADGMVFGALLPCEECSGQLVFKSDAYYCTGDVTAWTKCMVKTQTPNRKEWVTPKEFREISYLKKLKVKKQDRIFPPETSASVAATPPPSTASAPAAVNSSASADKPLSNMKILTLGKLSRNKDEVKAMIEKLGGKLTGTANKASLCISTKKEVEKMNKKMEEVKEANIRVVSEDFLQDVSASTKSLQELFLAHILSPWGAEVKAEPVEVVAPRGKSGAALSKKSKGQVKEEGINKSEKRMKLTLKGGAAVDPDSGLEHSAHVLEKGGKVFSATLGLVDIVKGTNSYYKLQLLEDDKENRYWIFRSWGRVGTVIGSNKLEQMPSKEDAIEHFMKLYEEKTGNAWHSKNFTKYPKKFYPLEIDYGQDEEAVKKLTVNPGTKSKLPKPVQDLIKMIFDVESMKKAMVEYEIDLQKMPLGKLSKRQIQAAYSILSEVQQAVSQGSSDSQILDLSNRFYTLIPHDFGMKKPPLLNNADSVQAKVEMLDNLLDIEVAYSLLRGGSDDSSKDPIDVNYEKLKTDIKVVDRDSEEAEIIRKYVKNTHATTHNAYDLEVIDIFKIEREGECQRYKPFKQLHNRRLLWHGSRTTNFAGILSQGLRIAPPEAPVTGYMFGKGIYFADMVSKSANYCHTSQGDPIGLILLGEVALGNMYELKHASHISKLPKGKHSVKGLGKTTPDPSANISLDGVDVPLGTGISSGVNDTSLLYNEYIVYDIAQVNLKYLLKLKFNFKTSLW

[3] = after infusion of bromodeoxyuridine or iododeoxyuridine; cited from earlier work
PARP1 [4] = target: T1, PARP1; conditions: cited from earlier work
Target sequence in this assay (P09874 whole entry, species assumed): as the sequence (P09874 whole entry) above

PARP1 [5] = target: T1, PARP1; design: isolated HeLa cell nuclei; endogenous in cells; host or cells: isolated HeLa cell nuclei; conditions: 1 mM; Preiss, 1971; cited from earlier work
Target sequence in this assay (P09874 whole entry): as above

PARP1 [6] = conditions: solution; Rankin, 1989; cited from earlier work
PARP1 [7] = target: T1, PARP1; design: isolated HeLa cell nuclei; endogenous in cells; host or cells: isolated HeLa cell nuclei; conditions: 50 mM; Filetti, 1981; cited from earlier work
Target sequence in this assay (P09874 whole entry): as above

Unresectable Sarcoma = conditions: trial e, 1987, 5 patients, dose 1.3, iv, with radiation, multiple cycles up to 5 months; cited from earlier work
PARP1 [8] = target: T2, PARP1 (Mus musculus, UniProt P11103); conditions: cultured 10T1/2 cells; Rankin, 1989; cited from earlier work
T2 construct: solution/cultured 10T1/2 cells; endogenous in cells; host or cells: cultured 10T1/2 cells
T2 sequence (P11103 whole entry): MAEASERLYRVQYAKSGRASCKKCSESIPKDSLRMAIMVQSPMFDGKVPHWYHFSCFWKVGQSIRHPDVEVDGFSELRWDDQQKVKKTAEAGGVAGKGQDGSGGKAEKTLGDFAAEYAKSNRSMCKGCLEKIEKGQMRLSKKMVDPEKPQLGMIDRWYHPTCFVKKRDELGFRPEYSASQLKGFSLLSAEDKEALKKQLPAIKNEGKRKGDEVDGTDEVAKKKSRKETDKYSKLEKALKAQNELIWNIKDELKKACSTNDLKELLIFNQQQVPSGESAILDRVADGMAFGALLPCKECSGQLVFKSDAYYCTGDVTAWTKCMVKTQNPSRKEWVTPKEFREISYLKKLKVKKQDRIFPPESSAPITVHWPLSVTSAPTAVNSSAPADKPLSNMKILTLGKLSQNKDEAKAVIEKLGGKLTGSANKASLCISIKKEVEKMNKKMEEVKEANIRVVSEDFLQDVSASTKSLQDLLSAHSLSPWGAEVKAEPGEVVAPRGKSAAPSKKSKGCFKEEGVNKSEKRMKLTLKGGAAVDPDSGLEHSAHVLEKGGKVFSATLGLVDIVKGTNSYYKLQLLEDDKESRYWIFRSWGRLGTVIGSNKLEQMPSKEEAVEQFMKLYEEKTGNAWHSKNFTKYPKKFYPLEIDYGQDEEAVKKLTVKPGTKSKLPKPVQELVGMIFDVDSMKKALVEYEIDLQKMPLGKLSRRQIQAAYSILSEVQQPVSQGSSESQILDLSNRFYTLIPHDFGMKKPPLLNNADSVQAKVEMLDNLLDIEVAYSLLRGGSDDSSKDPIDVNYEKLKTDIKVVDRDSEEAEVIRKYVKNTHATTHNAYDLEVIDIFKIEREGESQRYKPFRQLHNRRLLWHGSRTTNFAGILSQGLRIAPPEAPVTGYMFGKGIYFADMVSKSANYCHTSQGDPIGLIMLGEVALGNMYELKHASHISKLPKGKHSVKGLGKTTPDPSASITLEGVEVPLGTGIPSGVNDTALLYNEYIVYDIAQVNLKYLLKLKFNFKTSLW

PARP1 [9] = target: T1, PARP1; conditions: solution; Pivazyan, 1992; cited from earlier work
Target sequence in this assay (P09874 whole entry, species assumed): as the sequence (P09874 whole entry) above

[10] = system: DU-145, a human prostate metastatic carcinoma cell line; assay: 14-day culture of neoplastic cells with HAT, morphology and cell number (FIG. 2); assay type: cell-based; conditions: DU-145, 10 micromolar, 14 days in culture (more than 300 without drug)
From the text: (§1) FIGS. 2A-D illustrate HAT-Pi effects on two neoplastic cell lines; a) Calu-6, a human lung carcinoma cell line; and, b) DU-145, a human prostate metastatic carcinoma cell line.
(§2) Additionally, the overall appearance of the cultures and the morphology of the surviving cells is altered in specific ways. First, the remaining (surviving) cells are tightly adherent to the surface of the culture dish giving them a “flattened” appearance. Second, neoplastic cell expansion is attributable to cytoplasmic growth, which leaves the smaller internal cell nuclei distinctive in outline. Third, many cell outlines are “ruffled” in some regions due to the presence of lamellipodia, plasmalemma projections that are the leading edges of cell expansion (open arrows in FIGS. 2B and 2D). Fourth, specialized cell-cell contact and communication regions are evident where the lamellipodia of two or more cells meet (closed arrows in FIGS. 2B and 2D). […] These characteristic features of HAT-treated neoplastic cells indicate that substrate-attachment-dependent survival and contact inhibition have both been restored in surviving neoplastic cells. […]

[11] = system: Calu-6, a human lung carcinoma cell line; assay: as above; assay type: cell-based; conditions: Calu-6, 10 micromolar, 14 days in culture (more than 300 without drug)
From the text: as §1, §2

[12] = schedule A, single oral dose 2.40 Grams IPdR per M^2/day
[13] = schedule B, single oral dose 1.20 Grams IPdR per M^2/day
[14] = schedule C, single oral dose 0.60 Grams IPdR per M^2/day
[15] = schedule D, single oral dose 0.30 Grams IPdR per M^2/day
[16] = schedule E, single oral dose 0.15 Grams IPdR per M^2/day

SMILES: Cc1cn([C@H]2C[C@H](O)[C@@H](CO)O2)c(=O)[nH]c1=O [Thymidine, thymidine]
concentration that induces HeLa cells to attach, flatten and undergo cell death and disintegration (HeLa cells): > 1.0 millimolar

SMILES: O=c1ncc(I)cn1[C@H]1C[C@H](O)[C@@H](CO)O1 [IPdR, 5-iodo-2-pyrimidinone-2′-deoxyribose]
IU AUC [1, 12]: 1057.8 µM·h
IdU AUC [1, 12]: 12.2 µM·h
[IU] plasma (iodouracil), average maximum concentration [1, 12]: 133 µM
[IdU] plasma, average maximum concentration [1, 12]: 4.0 µM
IU AUC [1, 13]: 102.7 µM·h
IdU AUC [1, 13]: 4.7 µM·h
[IU] plasma (iodouracil), average maximum concentration [1, 13]: 34.2 µM
[IdU] plasma, average maximum concentration [1, 13]: 2.1 µM
IU AUC [1, 14]: 17.2 µM·h
IdU AUC [1, 14]: 3.2 µM·h
[IU] plasma (iodouracil), average maximum concentration [1, 14]: 4.5 µM
[IdU] plasma, average maximum concentration [1, 14]: 1.8 µM
IU AUC [1, 15]: 4.5 µM·h
IdU AUC [1, 15]: 0.3 µM·h
[IU] plasma (iodouracil), average maximum concentration [1, 15]: 0.8 µM
[IdU] plasma, average maximum concentration [1, 15]: 0.3 µM
IU AUC [1, 16]: 1.0 µM·h
IdU AUC [1, 16]: 1.7 µM·h
[IU] plasma (iodouracil), average maximum concentration [1, 16]: 0.2 µM
[IdU] plasma, average maximum concentration [1, 16]: 0.8 µM
time to average peak concentration of iododeoxyuridine in patient plasma ([1]; single oral dose of IPdR): ≤ 2 h

mode of inhibition (PARP1 [2]; Lineweaver-Burk plot, lines intersect vertical axis at control point): in competition with the substrate
SMILES: NC(=O)c1cccc(N)c1 [3-amino-benzamide]

SMILES: O=c1[nH]cc(Br)c(=O)[nH]1 [Bromouracil, 5-bromouracil]
catabolite concentration accumulated in patient plasma [3]: ~100 µM
inhibition of PARP1 enzymatic activity (PARP1 [4]): demonstrated capacity to inhibit PARP1 enzymatic activity

SMILES: O=c1[nH]cc(I)c(=O)[nH]1 [Iodouracil, 5-iodouracil]
catabolite concentration accumulated in patient plasma [3]: ~100 µM
inhibition of PARP1 enzymatic activity (PARP1 [4]): demonstrated capacity to inhibit PARP1 enzymatic activity

pKi (PARP1 [2]; intercept of Lineweaver-Burk plot, 50 micromolar inhibitor, pH 7.3, read-out: inhibition constant): 4.52 to 5.00
SMILES: O=c1[nH]c(=O)n([C@H]2C[C@H](O)[C@@H](CO)O2)cc1Br [Bromodeoxyuridine, 5-bromodeoxyuridine]
reported HAT inhibitory effect: inhibition (PARP1 [5]): 1 mM = 97% inhibition
pIC50 (PARP1 [6]): 4.82
reported HAT inhibitory effect (PARP1 [7]): 50 mM blocks hormone sensitization
objective improvement (Unresectable Sarcoma): 20%
subjective improvement (Unresectable Sarcoma): 20%
pIC50 (PARP1 [8]): 4.24
pKi (PARP1 [9]): 4.46
total number of cells per field [10]: < 50 cells per field
total number of cells per field [11]: < 50 cells per field
